# US20260022142A1, “MACROCYCLIC IMMUNOMODULATORS” (Bristol-Myers Squibb Company, priority 2022, published 2026)
# Bridge positions count the residues as written; N and C are the ends. Square brackets hold non-standard residues; d marks the D form. Peptide text beside a SMILES is read from it. * marks the point of attachment. ξ: configuration not given here. Phe(3-CF3) = N[C@@H](Cc1cccc(C(F)(F)F)c1)C(=O)O; Ala(morpholin-4-yl) = N[C@@H](CN1CCOCC1)C(=O)O; Phe(4-COOH) = N[C@@H](Cc1ccc(C(=O)O)cc1)C(=O)O; Bip = N[C@@H](Cc1ccc(-c2ccccc2)cc1)C(=O)O; NH(CH2)14COOH = O=C(O)CCCCCCCCCCCCCCN*; Phe(3-Me) = Cc1cccc(C[C@H](N)C(=O)O)c1; NH(CH2)12COOH = O=C(O)CCCCCCCCCCCCN*; Val(3-OH) = CC(C)(O)[C@H](N)C(=O)O; Cha = N[C@@H](CC1CCCCC1)C(=O)O; Thr(3ξ) = CC(O)[C@H](N)C(=O)O; NMeNle = CCCC[C@H](NC)C(=O)O; hSer = N[C@@H](CCO)C(=O)O; Carboxymethyl = O=C(O)C*; Orn = NCCC[C@H](N)C(=O)O; Aun = NCCCCCCCCCCC(=O)O; Dab = NCC[C@H](N)C(=O)O; Nva = CCC[C@H](N)C(=O)O; Dap = NC[C@H](N)C(=O)O; AEEA = NCCOCCOCC(=O)O
# Target: T1, PD-1/PD-L1 interaction (PE-labeled human PD-L1-Ig binding to Jurkat cell line over-expressing human PD-1) (Homo sapiens, UniProt Q15116)
# T1 construct: expressed in transfected cells; host or cells: Jurkat
# T1 sequence (Q15116 25-288): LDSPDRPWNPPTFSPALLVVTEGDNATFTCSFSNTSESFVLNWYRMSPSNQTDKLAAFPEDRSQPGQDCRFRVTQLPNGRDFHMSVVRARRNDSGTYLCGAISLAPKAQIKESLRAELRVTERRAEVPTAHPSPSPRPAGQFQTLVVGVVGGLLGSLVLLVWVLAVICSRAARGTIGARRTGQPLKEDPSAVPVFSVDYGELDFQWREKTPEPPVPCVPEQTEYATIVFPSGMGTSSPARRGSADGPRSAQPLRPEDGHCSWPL
# Assay: Jurkat-PD-1 Cell Binding High-Content Screening Assay (CBA)
# Assay type: cell-based
# Settings: Jurkat cell line over-expressing human PD-1; PE-labeled PD-L1-Ig 20 nM final; read-out: Jurkat hPD1-PDL1 IC50
# Summary of the method: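 Read-out is high-content imaging of cell-bound phycoerythrin-tagged PD-L1-Ig on fixed, Hoechst-counterstained Jurkat cells that over-express human PD-1. Compound exposure lasts 2 h at 37° C before the labeled ligand (20 nM final) is added for a further hour.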
row,IC50 [µM],SMILES
1,0.0125,CC(C)C[C@H]1NC(=O)[C@H](CCCN)NC(=O)[C@H](Cc2ccc(O)cc2)NC(=O)[C@H](Cc2ccc(-c3ccccc3)cc2)NC(=O)[C@H](C(C)C)NC(=O)[C@H](Cc2c[nH]c3ccccc23)NC(=O)[C@H](CC(=O)O)NC(=O)[C@H](Cc2ccc(OCC(=O)O)cc2)NC(=O)[C@H](CN)NC(=O)CSC[C@@H](C(=O)N[C@@H](CCN)C(=O)NCCOCCOCC(=O)NCCCCCCCCCCC(=O)O)NC(=O)[C@H](CCCN)NC(=O)[C@H](C(C)C)NC(=O)[C@H](CC2CCCCC2)NC(=O)[C@H](CCN)NC1=O [Compound 1290] ({CH2CO}-[Dap]Y(Carboxymethyl)DWV[Bip]Y[Orn][dL][Dab][Cha]V[Orn]C[Dab][AEEA][Aun]-OH; thioether N-14)
2,0.0118,Cc1cccc(C[C@@H]2NC(=O)[C@H](CC(=O)O)NC(=O)[C@H](Cc3ccc(OCC(=O)O)cc3)NC(=O)[C@H](C(C)O)NC(=O)CSC[C@@H](C(=O)N[C@@H](CCN)C(=O)NCCOCCOCC(=O)NCCCCCCCCCCC(=O)O)NC(=O)[C@H](CCCCN)NC(=O)[C@H](C(C)C)NC(=O)[C@H](CC3CCCCC3)NC(=O)[C@H](CCN)NC(=O)[C@@H](CC(C)C)NC(=O)[C@H](CCCN)NC(=O)[C@H](Cc3ccc(O)cc3)NC(=O)[C@H](Cc3ccc(-c4ccccc4)cc3)NC(=O)[C@H](Cc3ccc(O)cc3)NC2=O)c1 (stereo partly drawn) [Compound 3607] ({CH2CO}-[Thr(3ξ)]Y(Carboxymethyl)D[Phe(3-Me)]Y[Bip]Y[Orn][dL][Dab][Cha]VKC[Dab][AEEA][Aun]-OH; thioether N-14)
3,0.147,Cc1cccc(C[C@@H]2NC(=O)[C@H](CC(=O)O)NC(=O)[C@H](Cc3ccc(C(=O)O)cc3)NC(=O)[C@H](Cc3ccc(OCC(=O)O)cc3)NC(=O)CSC[C@@H](C(=O)N[C@@H](CCN)C(=O)NCCCCCCCCCCC(=O)O)NC(=O)[C@H]([C@@H](C)O)NC(=O)[C@H](C(C)C)NC(=O)[C@H](CC3CCCCC3)NC(=O)[C@H](CCN)NC(=O)[C@@H](CC(C)C)NC(=O)[C@H](CCCN)NC(=O)[C@H](Cc3ccc(O)cc3)NC(=O)[C@H](Cc3ccc(-c4ccccc4)cc3)NC(=O)[C@H](C(C)C)NC2=O)c1 [Compound 2748] ({CH2CO}-Y(Carboxymethyl)[Phe(4-COOH)]D[Phe(3-Me)]V[Bip]Y[Orn][dL][Dab][Cha]VTC[Dab][Aun]-OH; thioether N-14)
4,0.0095,Cc1cccc(C[C@@H]2NC(=O)[C@H](CC(=O)O)NC(=O)[C@H](Cc3ccc(OCC(=O)O)cc3)NC(=O)[C@H](CCCNC(=N)N)NC(=O)CSC[C@@H](C(=O)N[C@@H](CCN)C(=O)NCCCCCCCCCCC(=O)O)NC(=O)[C@H](CCO)NC(=O)[C@H](C(C)C)NC(=O)[C@H](CC3CCCCC3)NC(=O)[C@H](CCN)NC(=O)[C@@H](CC(C)C)NC(=O)[C@H](CCCN)NC(=O)[C@H](Cc3ccc(O)cc3)NC(=O)[C@H](Cc3ccc(-c4ccccc4)cc3)NC(=O)[C@H](Cc3ccc(OCC(=O)O)cc3)NC2=O)c1 [Compound 2095] ({CH2CO}-RY(Carboxymethyl)D[Phe(3-Me)]Y(Carboxymethyl)[Bip]Y[Orn][dL][Dab][Cha]V[hSer]C[Dab][Aun]-OH; thioether N-14)

# The remaining lines, values behind:
row,SMILES,IC50 [µM]
1,CCC[C@@H]1NC(=O)CSC[C@@H](C(=O)N[C@@H](CCN)C(=O)NCCCCCCCCCCC(=O)O)NC(=O)[C@H](CCC(=O)O)NC(=O)[C@H](C(C)(C)O)NC(=O)[C@H](CC2CCCCC2)NC(=O)[C@H](CCN)NC(=O)[C@@H](CC(C)C)NC(=O)[C@H](CCCN)NC(=O)[C@H](Cc2ccc(OCC(=O)O)cc2)NC(=O)[C@H](Cc2ccc(-c3ccccc3)cc2)NC(=O)[C@H](Cc2ccc(OCC(=O)O)cc2)NC(=O)[C@H](Cc2cccc(C)c2)NC(=O)[C@H](CC(=O)O)NC(=O)[C@H](Cc2ccc(OCC(=O)O)cc2)NC1=O [Compound 3795] ({CH2CO}-[Nva]Y(Carboxymethyl)D[Phe(3-Me)]Y(Carboxymethyl)[Bip]Y(Carboxymethyl)[Orn][dL][Dab][Cha][Val(3-OH)]EC[Dab][Aun]-OH; thioether N-14),0.0058
2,CCCC[C@H]1C(=O)N[C@@H](Cc2ccc(OCC(=O)O)cc2)C(=O)N[C@@H](CC(=O)O)C(=O)N[C@@H](Cc2cccc(C)c2)C(=O)N[C@@H](Cc2ccc(OCC(=O)O)cc2)C(=O)N[C@@H](Cc2ccc(-c3ccccc3)cc2)C(=O)N[C@@H](Cc2ccc(OCC(=O)O)cc2)C(=O)N[C@@H](CCCN)C(=O)N[C@H](CC(C)C)C(=O)N[C@@H](CCN)C(=O)N[C@@H](CC2CCCCC2)C(=O)N[C@@H](C(C)C)C(=O)N[C@@H](CO)C(=O)N[C@H](C(=O)N[C@@H](CCN)C(=O)NCCCCCCCCCCC(=O)O)CSCC(=O)N1C [Compound 3598] ({CH2CO}-[NMeNle]Y(Carboxymethyl)D[Phe(3-Me)]Y(Carboxymethyl)[Bip]Y(Carboxymethyl)[Orn][dL][Dab][Cha]VSC[Dab][Aun]-OH; thioether N-14),0.0138
3,Cc1cccc(C[C@@H]2NC(=O)[C@H](CC(=O)O)NC(=O)[C@H](Cc3ccc(OCC(=O)O)cc3)NC(=O)[C@H](C(C)O)NC(=O)CSC[C@@H](C(=O)N[C@H](CC(N)=O)C(=O)NCCCCCCCCCCC(=O)O)NC(=O)[C@H](CO)NC(=O)[C@H](C(C)C)NC(=O)[C@H](CC3CCCCC3)NC(=O)[C@H](CCN)NC(=O)[C@@H](CC(C)C)NC(=O)[C@H](CCCN)NC(=O)[C@H](Cc3ccc(O)cc3)NC(=O)[C@H](Cc3ccc(-c4ccccc4)cc3)NC(=O)[C@H](C(C)C)NC2=O)c1 (stereo partly drawn) [Compound 3432] ({CH2CO}-[Thr(3ξ)]Y(Carboxymethyl)D[Phe(3-Me)]V[Bip]Y[Orn][dL][Dab][Cha]VSC[dN][Aun]-OH; thioether N-14),0.0114
4,Cc1cccc(C[C@@H]2NC(=O)[C@H](CC(=O)O)NC(=O)[C@H](Cc3ccc(OCC(=O)O)cc3)NC(=O)[C@H](CCCNC(=N)N)NC(=O)CSC[C@@H](C(=O)N[C@H](CC(N)=O)C(=O)NCCCCCCCCCCC(=O)O)NC(=O)[C@H](C(C)O)NC(=O)[C@H](CO)NC(=O)[C@H](CC3CCCCC3)NC(=O)[C@H](CCN)NC(=O)[C@@H](CC(C)C)NC(=O)[C@H](CCCN)NC(=O)[C@H](Cc3ccc(OCC(=O)O)cc3)NC(=O)[C@H](Cc3ccc(-c4ccccc4)cc3)NC(=O)[C@H](Cc3ccc(OCC(=O)O)cc3)NC2=O)c1 (stereo partly drawn) [Compound 3515] ({CH2CO}-RY(Carboxymethyl)D[Phe(3-Me)]Y(Carboxymethyl)[Bip]Y(Carboxymethyl)[Orn][dL][Dab][Cha]S[Thr(3ξ)]C[dN][Aun]-OH; thioether N-14),0.169
5,Cc1cccc(C[C@@H]2NC(=O)[C@H](CC(=O)O)NC(=O)[C@H](Cc3ccc(OCC(=O)O)cc3)NC(=O)[C@H](CN)NC(=O)CSC[C@@H](C(=O)N[C@@H](CCCCN)C(=O)NCCOCCOCC(=O)NCCCCCCCCCCC(=O)O)NC(=O)[C@H](CCCNC(=N)N)NC(=O)[C@H](C(C)C)NC(=O)[C@H](CC3CCCCC3)NC(=O)[C@H](CCN)NC(=O)[C@@H](CC(C)C)NC(=O)[C@H](CCCN)NC(=O)[C@H](C(C)C)NC(=O)[C@H](Cc3ccc(-c4ccccc4)cc3)NC(=O)[C@H](C(C)C)NC2=O)c1 [Compound 2528] ({CH2CO}-[Dap]Y(Carboxymethyl)D[Phe(3-Me)]V[Bip]V[Orn][dL][Dab][Cha]VRCK[AEEA][Aun]-OH; thioether N-14),0.0078
6,Cc1cccc(C[C@@H]2NC(=O)[C@H](CC(=O)O)NC(=O)[C@H](Cc3ccc(OCC(=O)O)cc3)NC(=O)[C@H](CCN)NC(=O)CSC[C@@H](C(=O)N[C@@H](CCN)C(=O)NCCOCCOCC(=O)NCCOCCOCC(=O)NCCCCCCCCCCCCC(=O)O)NC(=O)[C@H](CCC(=O)O)NC(=O)[C@H](C(C)(C)O)NC(=O)[C@H](CC3CCCCC3)NC(=O)[C@H](CCN)NC(=O)[C@@H](CC(C)C)NC(=O)[C@H](CCCN)NC(=O)[C@H](Cc3ccc(C(=O)O)cc3)NC(=O)[C@H](Cc3ccc(-c4ccccc4)cc3)NC(=O)[C@H](Cc3ccc(C(=O)O)cc3)NC2=O)c1 [Compound 3759] ({CH2CO}-[Dab]Y(Carboxymethyl)D[Phe(3-Me)][Phe(4-COOH)][Bip][Phe(4-COOH)][Orn][dL][Dab][Cha][Val(3-OH)]EC[Dab][AEEA][AEEA]-{NH(CH2)12COOH}; thioether N-14),0.0392
7,Cc1cccc(C[C@@H]2NC(=O)[C@H](CC(=O)O)NC(=O)[C@H](Cc3ccc(OCC(=O)O)cc3)NC(=O)[C@H](CN3CCOCC3)NC(=O)CSC[C@@H](C(=O)N[C@@H](CCN)C(=O)NCCOCCOCC(=O)NCCOCCOCC(=O)NCCCCCCCCCCCCC(=O)O)NC(=O)[C@H](CO)NC(=O)[C@H](C(C)(C)O)NC(=O)[C@H](CC3CCCCC3)NC(=O)[C@H](CCN)NC(=O)[C@@H](CC(C)C)NC(=O)[C@H](CCCN)NC(=O)[C@H](Cc3ccc(C(=O)O)cc3)NC(=O)[C@H](Cc3ccc(-c4ccccc4)cc3)NC(=O)[C@H](Cc3ccc(C(=O)O)cc3)NC2=O)c1 [Compound 2897] ({CH2CO}-[Ala(morpholin-4-yl)]Y(Carboxymethyl)D[Phe(3-Me)][Phe(4-COOH)][Bip][Phe(4-COOH)][Orn][dL][Dab][Cha][Val(3-OH)]SC[Dab][AEEA][AEEA]-{NH(CH2)12COOH}; thioether N-14),0.0016
8,CC(C)C[C@H]1NC(=O)[C@H](CCCN)NC(=O)[C@H](Cc2ccc(C(=O)O)cc2)NC(=O)[C@H](Cc2ccc(-c3ccccc3)cc2)NC(=O)[C@H](Cc2ccc(C(=O)O)cc2)NC(=O)[C@H](Cc2cccc(C(F)(F)F)c2)NC(=O)[C@H](CC(=O)O)NC(=O)[C@H](Cc2ccc(OCC(=O)O)cc2)NC(=O)[C@H](C)NC(=O)CSC[C@@H](C(=O)N[C@@H](CCN)C(=O)NCCCCCCCCCCCCCCC(=O)O)NC(=O)[C@H](Cc2c[nH]cn2)NC(=O)[C@H](C(C)(C)O)NC(=O)[C@H](CC2CCCCC2)NC(=O)[C@H](CCN)NC1=O [Compound 2922] ({CH2CO}-AY(Carboxymethyl)D[Phe(3-CF3)][Phe(4-COOH)][Bip][Phe(4-COOH)][Orn][dL][Dab][Cha][Val(3-OH)]HC[Dab]-{NH(CH2)14COOH}; thioether N-14),0.423
